Reference: US10160791B2, “Protamine in treatment of neuronal injuries” (UNIVERSITY OF HELSINKI, priority 2013, dated 2018)
“Also recorded” adds a separate entry of the source.

Key:
[1] = tested on: mice with spinal cord hemisection; assay: Cylinder test of limb use asymmetry after spinal cord hemisection; type: in vivo, mouse; conditions: intracerebroventricular injection, compared to vehicle
Protocol: (§1) Animals were anaesthetized with a intraperitoneal mixture of Ketaminol (2 mg/20 g body weight, Intervet) and Rompun (0.25 mg/20 g body weight, Bayer). After laminectomy at C5 vertebral level, the dura was carefully removed. The right cervical spinal hemicord was transected with a 25G syringe needle from midline dorsal vessel to the lateral side. Bleeding was controlled with haemostatic gelatin sponge. Muscle and skin were sutured with 6-0 monocryl. 30 min before surgery and during following 3 days mice were treated with antibiotic Borgal (30 mg/kg, Intervet). Body weight and bladder expression were checked for 7 days, and animal received Rimadil (5 mg/kg, Pfizer) and Rapidexon (0.2 mg/kg, Evrovet) to control pain and inflammatory swelling until they stop to lose body weight.
Cylinder Test of Limb Use Asymmetry. Mouse was placed to glass cylinder 10 cm in diameter and 14 cm high. Mirror was position at the angle behind of cylinder for better observation. […] The number of rearing in which mouse used right (impaired), left or both limbs for support against the wall were measured. Paw preference were calculated as ratio of total number of left limb use (left+both) to total number of right (impaired) limb use (right+both).
(§2) Statistic. Data obtained from Vertical screen test were analyzed by one-way ANOVA followed by post-hoc Newman-Keuls test for detection of group differences. […]

[2] = tested on: mice with spinal cord hemisection; assay: Vertical screen test after spinal cord hemisection; type: in vivo, mouse; conditions: intracerebroventricular injection, compared to vehicle
Protocol: as §1
Vertical screen (VS). The mouse was placed on a very brink of horizontal wire screen (25×22 cm, diameter of wires 2 mm spaced at 1 cm) faced to edge. Immediately after that the screen was turned vertically to place mouse to upside down position at the lower edge. The time that animal was needed to climb to the upper edge were measured during 1 min. This test was repeated every second week starting from 1st week after surgery.
as §2

[3] = tested on: embryonic rat cortical neurons; assay: Neurite outgrowth assay on aggrecan-coated substrate, cortical neurons; type: cell-based; conditions: E17 rat cortical neurons, plates precoated with aggrecan 10 μg/ml, cultured 1.5-3.5 days
Protocol: (§3) Cortical or hippocampal neurons from E17 rat embryos were plated at 50,000 cells/cm2 on plastic cell culture plates. Plates were precoated with aggrecan or IgG (10 μg/ml). Protamine, or derived peptides, were precoated together with aggrecan or added to culture medium when plating neurons. Cells were cultured for 1.5-3.5 days and after that images of cell cultures were taken using phase contrast microscope with ×20 objective. Neurite length was quantified using ImagePro software. Mouse neurons were immunostained with anti-tubulin βIII antibodies and imaged using fluorescent microscope.

[4] = tested on: wild type RPTPσ; assay: RPTPσ binding assay (ELISA, biotinylated aggrecan), wild type RPTPσ; parameters: species or system mouse; conditions: FIG. 4
Excerpt: (§4) Protamine (salmon) and protamine sulphate (herring) were from Sigma, protamine sulphate (salmon) was from Leo Pharma. Bovine aggrecan was from Sigma. The DNA sequence (the template cDNA clone MGC:63375 IMAGE:6834684) of the CSPG-binding domain of mouse RPTPσ was used for Fc-tagged RPTPσ protein production. Peptides derived from the protamine sequence were custom synthesised by CASLO ApS (Denmark).
(§5) The Fc-tagged extracellular domain of RPTPσ was immobilized on protein G-coated plates. Binding of biotinylated aggrecan to RPTPσ was quantified via colorimetric assay using streptavidin-conjugated horse radish peroxidise. Experiments were done by using protein G coated 96 well plates (Pierce, prod. #15133). Wells were first washed briefly with PBS, 0.05% Tween-20 solution. RPTPσ wild type and mutant FC-fusion proteins were diluted into 2 μg/ml solution in buffer containing PBS, 1% BSA, 0.05% Tween-20. 150 μl of protein solution was added into the wells and plates were left for shaking at +RT for 1 hour. […] Detection of bound Streptavidin-Peroxidase Polymer was done by adding 200 μl of OPD (o-Phenylenediamine dihydrochloride, SIGMA P9187) substrate into the wells and was measured by reading the absorbance at 450 nm (A450).
(§6) Aggrecan binding to RPTPσ was assessed via ELISA using Fc-tagged RPTPσ and biotinylated aggrecan. Binding was quantified using streptavidin-bound horse radish peroxidase. […]

[5] = tested on: Mutant RPTPσ, with a defective CSPG-binding site; assay: RPTPσ binding assay (ELISA, biotinylated aggrecan), mutant RPTPσ; parameters: species or system mouse; conditions: negative control, biotinylated aggrecan 5 μg/ml, protamine 0-5 μg/ml
Excerpt: as §4, §5, §6

[6] = tested on: embryonic rat hippocampal neurons; assay: Neurite outgrowth assay on aggrecan-coated substrate, hippocampal neurons; type: cell-based; conditions: E17 rat hippocampal neurons, plates precoated with aggrecan 10 μg/ml
Protocol: as §3

## VSRRRRRRGGRRRR [Peptide 12]
[1]
  limb usage on the affected side (cylinder test): improves functional recovery
[1]; listed as protamine peptide 12
  limb usage on the affected side (cylinder test): enhances limb usage on the affected side compared to the vehicle
[2]
  time used in the vertical climbing test (vertical screen): improves functional recovery
[2]; listed as protamine peptide 12
  time used in the vertical climbing test (vertical screen): becomes shortened compared to injection of the vehicle only
[3]
  neuronal attachment and neurite growth on the aggrecan-coated substrate: overcome the inhibitory action of aggrecan, promoting neuronal attachment and neurite growth; also recorded: displayed activity

## SRPVRRRRRPRVSRRRRRRGGRRRR [Peptide 2]
[3]
  neuronal attachment and neurite growth on the aggrecan-coated substrate: overcome the inhibitory action of aggrecan, promoting neuronal attachment and neurite growth; also recorded: displayed activity

## MPRRRRSSSRPVRRRRRPRVSRRRRRRGGRRRR (Genus/Species name of salmon disclosed by SEQ ID NO 1 is not known) [Protamine, small arginine-rich nuclear protein, from Sigma]
[4]
  amount of aggrecan binding to RPTPσ (in words): increases the amount of aggrecan binding to RPTPσ
[3]
  neuronal attachment and neurite growth on the aggrecan-coated substrate: overcomes the inhibitory action of aggrecan, promoting neuronal attachment and neurite growth; also recorded: overcame this inhibitory action of aggrecan, promoting neuronal attachment and neurite growth; also recorded: active as both the free protein and as sulphate salt
[5]
  aggrecan binding to mutant RPTPσ: not affected

## SRPVRRRRRPRVS [Peptide 3]
[6]
  neuronal attachment and neurite growth on the aggrecan-coated substrate: overcomes the inhibitory action of aggrecan, promoting neuronal attachment and neurite growth
